Source: PubChem BioAssay AID1259407 (Chemical Carcinogenesis Research Information System (CCRIS), 2018)
Active and inactive are the calls of the source. How the calls were made is not given here.

Test system: CCRIS mutagenicity, Ames/micronucleus/aberration tests
Test: CCRIS mutagenicity studies
[1] = Test System: AMES SALMONELLA TYPHIMURIUM, Strain/Indicator: TA98, Metabolic Activation: NONE, Method: PREINCUBATION
[2] = Test System: AMES SALMONELLA TYPHIMURIUM, Strain/Indicator: TA100, Metabolic Activation: NONE, Method: PREINCUBATION
[3] = Test System: AMES SALMONELLA TYPHIMURIUM, Strain/Indicator: TA100, Metabolic Activation: NONE, Method: STANDARD PLATE

SMILES: C#CC
- mutagenic call (End Point: IN VITRO CHROMOSOMAL ABERRATIONS, Test System: CHL CELLS, Metabolic Activation: RAT, LIVER, S-9, SODIUM PHENOBARBITAL AND 5,6-BENZOFLAVONE): inactive; negative; authors report equivocal results for structural changes at the highest
- mutagenic call (Test System: AMES SALMONELLA TYPHIMURIUM, Strain/Indicator: TA98, Metabolic Activation: NONE, Method: GAS EXPOSURE): inactive; negative
- mutagenic call (Test System: AMES SALMONELLA TYPHIMURIUM, Strain/Indicator: TA98, Metabolic Activation: RAT LIVER S-9, PHENOBARBITAL AND BETA-NAPHTHOFLAVONE (40%), Method: GAS EXPOSURE): inactive; negative
- mutagenic call (Test System: AMES SALMONELLA TYPHIMURIUM, Strain/Indicator: TA98, Metabolic Activation: RAT, LIVER, S-9, PHENOBARBITAL AND 5,6-BENZOFLAVONE, Method: GAS EXPOSURE): inactive; negative
- mutagenic call (Test System: AMES SALMONELLA TYPHIMURIUM, Strain/Indicator: TA100, Metabolic Activation: NONE, Method: GAS EXPOSURE): inactive; negative
- mutagenic call (Test System: AMES SALMONELLA TYPHIMURIUM, Strain/Indicator: TA100, Metabolic Activation: RAT LIVER S-9, PHENOBARBITAL AND BETA-NAPHTHOFLAVONE (40%), Method: GAS EXPOSURE): inactive; negative
- mutagenic call (Test System: AMES SALMONELLA TYPHIMURIUM, Strain/Indicator: TA100, Metabolic Activation: RAT, LIVER, S-9, PHENOBARBITAL AND 5,6-BENZOFLAVONE, Method: GAS EXPOSURE): inactive; negative
- mutagenic call (Test System: AMES SALMONELLA TYPHIMURIUM, Strain/Indicator: TA1535, Metabolic Activation: NONE, Method: GAS EXPOSURE): inactive; negative
- mutagenic call (Test System: AMES SALMONELLA TYPHIMURIUM, Strain/Indicator: TA1535, Metabolic Activation: RAT LIVER S-9, PHENOBARBITAL AND BETA-NAPHTHOFLAVONE (40%), Method: GAS EXPOSURE): inactive; negative
- mutagenic call (Test System: AMES SALMONELLA TYPHIMURIUM, Strain/Indicator: TA1535, Metabolic Activation: RAT, LIVER, S-9, PHENOBARBITAL AND 5,6-BENZOFLAVONE, Method: GAS EXPOSURE): inactive; negative
- mutagenic call (Test System: AMES SALMONELLA TYPHIMURIUM, Strain/Indicator: TA1537, Metabolic Activation: NONE, Method: GAS EXPOSURE): inactive; negative
- mutagenic call (Test System: AMES SALMONELLA TYPHIMURIUM, Strain/Indicator: TA1537, Metabolic Activation: RAT LIVER S-9, PHENOBARBITAL AND BETA-NAPHTHOFLAVONE (40%), Method: GAS EXPOSURE): inactive; negative
- mutagenic call (Test System: AMES SALMONELLA TYPHIMURIUM, Strain/Indicator: TA1537, Metabolic Activation: RAT, LIVER, S-9, PHENOBARBITAL AND 5,6-BENZOFLAVONE, Method: GAS EXPOSURE): inactive; negative
- mutagenic call (Test System: E. COLI, Strain/Indicator: WP2 UVRA, Metabolic Activation: NONE, Method: GAS EXPOSURE): active; positive
- mutagenic call (Test System: E. COLI, Strain/Indicator: WP2 UVRA, Metabolic Activation: RAT, LIVER, S-9, PHENOBARBITAL AND 5,6-BENZOFLAVONE, Method: GAS EXPOSURE): active; positive
- mutagenic call (Test System: E.COLI, Strain/Indicator: WP2UVRA, Metabolic Activation: NONE, Method: GAS EXPOSURE): active; positive
- mutagenic call (Test System: E.COLI, Strain/Indicator: WP2UVRA, Metabolic Activation: RAT LIVER S-9, PHENOBARBITAL AND BETA-NAPHTHOFLAVONE (40%), Method: GAS EXPOSURE): active; positive

SMILES: C[C@@H]1NCCc2cc(O)c(O)cc21
- mutagenic call (End Point: IN VITRO CHROMOSOMAL ABERRATIONS, Test System: CHL FIBROBLAST CELLS, Metabolic Activation: NONE): active; positive
- mutagenic call (End Point: IN VITRO CHROMOSOMAL ABERRATIONS, Test System: CHL FIBROBLAST CELLS, Metabolic Activation: RAT, LIVER, S-9 (5%)): inactive; negative

SMILES: C[CH2][Hg][S]c1ccccc1C(=O)O
- mutagenic call (End Point: IN VITRO MICRONUCLEUS, Test System: HAMSTER V79 CELLS, Metabolic Activation: NONE): active; positive
- mutagenic call (Test System: AMES SALMONELLA TYPHIMURIUM, Strain/Indicator: TA98, Metabolic Activation: HAMSTER, LIVER, S-9, AROCLOR 1254 (10%), Method: PREINCUBATION): inactive; negative
- mutagenic call [1]: inactive; negative
- mutagenic call (Test System: AMES SALMONELLA TYPHIMURIUM, Strain/Indicator: TA98, Metabolic Activation: RAT, LIVER, S-9, AROCLOR 1254 (10%), Method: PREINCUBATION): inactive; negative
- mutagenic call (Test System: AMES SALMONELLA TYPHIMURIUM, Strain/Indicator: TA100, Metabolic Activation: HAMSTER, LIVER, S-9, AROCLOR 1254 (10%), Method: PREINCUBATION): inactive; negative
- mutagenic call [2]: inactive; negative
- mutagenic call (Test System: AMES SALMONELLA TYPHIMURIUM, Strain/Indicator: TA100, Metabolic Activation: RAT, LIVER, S-9, AROCLOR 1254 (10%), Method: PREINCUBATION): inactive; negative
- mutagenic call (Test System: AMES SALMONELLA TYPHIMURIUM, Strain/Indicator: TA1535, Metabolic Activation: HAMSTER, LIVER, S-9, AROCLOR 1254 (10%), Method: PREINCUBATION): inactive; negative
- mutagenic call (Test System: AMES SALMONELLA TYPHIMURIUM, Strain/Indicator: TA1535, Metabolic Activation: NONE, Method: PREINCUBATION): inactive; negative
- mutagenic call (Test System: AMES SALMONELLA TYPHIMURIUM, Strain/Indicator: TA1535, Metabolic Activation: RAT, LIVER, S-9, AROCLOR 1254 (10%), Method: PREINCUBATION): inactive; negative
- mutagenic call (Test System: AMES SALMONELLA TYPHIMURIUM, Strain/Indicator: TA1537, Metabolic Activation: HAMSTER, LIVER, S-9, AROCLOR 1254 (10%), Method: PREINCUBATION): inactive; negative
- mutagenic call (Test System: AMES SALMONELLA TYPHIMURIUM, Strain/Indicator: TA1537, Metabolic Activation: NONE, Method: PREINCUBATION): inactive; negative
- mutagenic call (Test System: AMES SALMONELLA TYPHIMURIUM, Strain/Indicator: TA1537, Metabolic Activation: RAT, LIVER, S-9, AROCLOR 1254 (10%), Method: PREINCUBATION): inactive; negative

SMILES: CCN(CC)CCCNc1ccc2nc(C)n3c4ccc(O)cc4c(=O)c1c23
- mutagenic call (Test System: CHINESE HAMSTER V-79, Strain/Indicator: V-79 (HGPRT)/6-THIOGUANINE, Metabolic Activation: NONE): active; positive

SMILES: Cc1ccccc1N=Nc1ccc(N)c(C)c1N
- mutagenic call (Test System: AMES SALMONELLA TYPHIMURIUM, Strain/Indicator: TA100, Metabolic Activation: HUMAN, LIVER, S-9, Method: PREINCUBATION): active; positive
- mutagenic call (Test System: AMES SALMONELLA TYPHIMURIUM, Strain/Indicator: TA100, Metabolic Activation: RAT, LIVER, S-9, BETA-NAPHTHOFLAVONE, Method: PREINCUBATION): active; positive
- mutagenic call (Test System: AMES SALMONELLA TYPHIMURIUM, Strain/Indicator: TA100, Metabolic Activation: RAT, LIVER, S-9, PHENOBARBITAL, Method: PREINCUBATION): active; positive
- mutagenic call (Test System: AMES SALMONELLA TYPHIMURIUM, Strain/Indicator: TA100, Metabolic Activation: RAT, LIVER, S-9, Method: PREINCUBATION): active; positive
- mutagenic call (Test System: UDS RODENT HEPATOCYTES, Strain/Indicator: THY INCORP, Metabolic Activation: NONE, Method: AUTORADIOGRAPHY): active; positive

SMILES: O=[N+]([O-])c1ccc2c3c(cccc13)CC2
- mutagenic call (Test System: AMES SALMONELLA TYPHIMURIUM, Strain/Indicator: TA98, Metabolic Activation: NONE, Method: STANDARD PLATE): active; positive
- mutagenic call (Test System: AMES SALMONELLA TYPHIMURIUM, Strain/Indicator: TA98, Metabolic Activation: RAT, LIVER, S-9, AROCLOR 1254, Method: STANDARD PLATE): active; positive
- mutagenic call (Test System: AMES SALMONELLA TYPHIMURIUM, Strain/Indicator: TA98, Metabolic Activation: RAT, LIVER, S-9, KC500 OR PHENOBARBITAL, Method: LIQUID SUSPENSION): active; positive
- mutagenic call [3]: active; positive
- mutagenic call (Test System: AMES SALMONELLA TYPHIMURIUM, Strain/Indicator: TA100, Metabolic Activation: RAT, LIVER, S-9, AROCLOR 1254, Method: STANDARD PLATE): active; positive
- mutagenic call (Test System: AMES SALMONELLA TYPHIMURIUM, Strain/Indicator: TA100, Metabolic Activation: RAT, LIVER, S-9, KC500 OR PHENOBARBITAL, Method: LIQUID SUSPENSION): active; positive
- mutagenic call (Test System: E. COLI, Strain/Indicator: WP2 UVRA, Metabolic Activation: NONE, Method: STANDARD PLATE): inactive; negative
- mutagenic call (Test System: E. COLI, Strain/Indicator: WP2 UVRA, Metabolic Activation: RAT, LIVER, S-9, Method: STANDARD PLATE): inactive; negative

SMILES: Cc1c2cccc(C)c2nc2c1ccc1ccccc12
- mutagenic call (Test System: AMES SALMONELLA TYPHIMURIUM, Strain/Indicator: TA97A, Metabolic Activation: NONE, Method: PREINCUBATION): inactive; negative
- mutagenic call [1]: active; positive
- mutagenic call [2]: inactive; negative
- mutagenic call (Test System: AMES SALMONELLA TYPHIMURIUM, Strain/Indicator: TA102, Metabolic Activation: NONE, Method: PREINCUBATION): active; positive

SMILES: C#CC(OC(=O)NC1CCCCC1)(c1ccccc1)c1ccc(C)c(C)c1 (stereo not drawn)
- mutagenic call [3]: active; positive
- mutagenic call (Test System: AMES SALMONELLA TYPHIMURIUM, Strain/Indicator: TA1535, Metabolic Activation: NONE, Method: STANDARD PLATE): active; positive
- mutagenic call (Test System: UDS HUMAN FIBROBLASTS, Strain/Indicator: THY INCORP (NON-S-PHASE), Metabolic Activation: NONE, Method: AUTORADIOGRAPHY): active; positive
